The values below come from patent publication US11084784B2, “ROR-gamma modulators and uses thereof” (PIRAMAL ENTERPRISES LIMITED, priority 2014, dated 2021).

The IC50 is the midpoint of a concentration-inhibition curve.

For the test, the target named is RORγt (Homo sapiens (Human), UniProt P51449). Briefly: RORγt luciferase reporter assay in CHO-K1 cells (RORgamma inhibitory activity). The format is cell-based. Conditions: CHO-K1 cells stably transfected with RORγt, transiently transfected with pFR Luc; 18-20 hours treatment; luminescence; read-out: In-vitro IC50 value IC50. In general terms: In a reporter assay the amount or activity of a reporter protein is the signal.
Chain of RORγt (P51449 other isoform, or with tags, fused parts or gaps, species assumed): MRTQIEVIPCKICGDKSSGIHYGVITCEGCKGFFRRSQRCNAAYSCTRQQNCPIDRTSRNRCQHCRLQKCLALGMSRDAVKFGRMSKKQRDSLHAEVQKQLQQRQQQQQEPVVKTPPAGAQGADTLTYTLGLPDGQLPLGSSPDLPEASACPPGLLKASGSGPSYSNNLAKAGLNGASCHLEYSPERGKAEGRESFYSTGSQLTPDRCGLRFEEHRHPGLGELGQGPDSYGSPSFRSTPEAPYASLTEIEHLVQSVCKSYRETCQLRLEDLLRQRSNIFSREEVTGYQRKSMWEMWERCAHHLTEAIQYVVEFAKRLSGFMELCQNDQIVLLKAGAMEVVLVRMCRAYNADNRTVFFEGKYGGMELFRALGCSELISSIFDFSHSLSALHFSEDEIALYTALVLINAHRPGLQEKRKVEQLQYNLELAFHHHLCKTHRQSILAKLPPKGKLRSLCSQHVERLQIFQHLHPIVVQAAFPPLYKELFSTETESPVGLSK

Procedure: The representative compounds are referred to as the test compounds.
CHO-K1 cells stably transfected with RORγt are maintained in MEM-EBS with 5% FBS, 1% penicillin streptomycin solution and 1 mg/mL G418. The cells are seeded at a density of 200000 cells/mL in white 96 well flat bottom plate. Post 16-18 hours incubation, the cells are transiently transfected with pFR Luc (50 ng/well DNA) for four hours. The cells are then treated with different doses of the test compounds in MEM EBS media with 10% FBS and 1% penicillin streptomycin. DMSO is used as vehicle control. After 18-20 hours treatment, the cells are lysed with lysis buffer (40 mM HEPES, 20 mM EGTA, 50 mM β-glycerophosphate, 10% glycerol and 1% Triton X-100 in distilled water) for 0.5 hour and luminescence is read using Tecan Safire reader at 1000 milli second integration time.

As to `CCS(=O)(=O)c1ccc(CC(=O)Nc2ccc(OC3CCCCC3)c(C(F)(F)F)c2)cc1` [Example 23, N-(4-(Cyclohexyloxy)-3-(trifluoromethyl)phenyl)-2-(4-(ethylsulfonyl)phenyl)acetamide], the IC50 lay in the range of 50 to 100 nM.

Consider `CCS(=O)(=O)c1ccc(CC(=O)Nc2ccc(C3=CCC(=O)CC3)c(C(F)(F)F)c2)cc1` [Example 24, 2-(4-(Ethylsulfonyl)phenyl)-N-(4′-oxo-2-(trifluoromethyl)-2′,3′,4′,5′-tetrahydro-[1,1′-biphenyl]-4-yl)acetamide], for which the IC50 lay in the range of 0.01 to 50 nM.

As for `CCS(=O)(=O)c1ccc(CC(=O)Nc2ccc(C3CCCCC3)cc2)cc1` [Example 25, N-(4-Cyclohexylphenyl)-2-(4-(ethylsulfonyl)phenyl)acetamide], the IC50 lay in the range of 0.01 to 50 nM.

With `CCS(=O)(=O)c1ccc(CC(=O)Nc2ccc(C3=CCC(O)CC3)c(C(F)(F)F)c2)cc1` (centres unmarked) [Example 34, 2-(4-(Ethylsulfonyl)phenyl)-N-(4′-hydroxy-2-(trifluoromethyl)-2′,3′,4′,5′-tetrahydro-[1,1′-biphenyl]-4-yl)acetamide], the IC50 fell in the range of 0.01 to 50 nM.

For the compound `CCS(=O)(=O)c1ccc(CC(=O)Nc2ccc3c(c2)CCCC3(O)c2ccc(OC)cc2)cc1` (centres unmarked) [Example 43, 2-(4-(Ethylsulfonyl)phenyl)-N-(5-hydroxy-5-(4-methoxyphenyl)-5,6,7,8-tetrahydronaphthalen-2-yl)acetamide], the IC50 is 0.01 to 50 nM.
